Reference: patent US20230044248A1, “COMBINED INHIBITION OF PD-1, TGFBeta AND ATM TOGETHER WITH RADIOTHERAPY FOR THE TREATMENT OF CANCER” (ARES TRADING S.A., priority 2019, published 2023)

Legend:
4T1 cells [1] = assay: Example 1: bintrafusp alfa, RT and Compound A in the 4T1 mammary tumor model; assay type: in vivo, BALB/c mice; details: mice sacrificed at tumor volume ≈2000 mm^3; Compound A 100 mg/kg p.o. day 0-10 where given
4T1 cells [2] = assay: Example 2: dosing schedule of Compound A in the triple combination, 4T1 mammary tumor model; details: dual combination without Compound A
Experimental: BALB/c mice were inoculated intramuscularly (i.m.) with 0.5×10^5 4T1 cells (day −7) and treated (n=10 mice/group) with isotype control (400 μg i.v.; day 0, 2, 4)+vehicle control (0.2 mL, p.o., day 0-17), bintrafusp alfa (492 μg i.v.; day 0, 2, 4)+RT (8 Gy, day 0-3), or bintrafusp alfa+RT+Compound A (100 mg/kg, p.o, days 0-3, days 0-10, or day 0-17). Tumor volumes were measured twice weekly and presented as (A) mean±SEM or (B) individual tumor volumes. P-values were calculated by two-way RM ANOVA with Tukey's post-test. (C) For survival analysis, mice were sacrificed when tumor volumes reached ≈2000 mm^3 and median survival times were calculated.
The effect of different dosing schedules of Compound A on the antitumor activity of the triple combination therapy was evaluated in the 4T1 mammary tumor model. […]
(§1) Tumor volumes were calculated with the following formula: tumor volume (mm^3)=tumor length×width×height×0.5236. Tumor growth inhibition (TGI) was calculated with the following formula: TGI (%)=[1−(Ti−T0)/(Vi−V0)]×100, where Ti is the average tumor volume (mm^3) of a treatment group on a given day, TO is the average tumor volume of the treatment group on the first day of treatment, Vi is the average tumor volume of the vehicle control group on the same day as Ti, and V0 is the average tumor volume of the vehicle control group on the first day of treatment. […]

4T1 cells [3] = assay: Example 3: triple combination versus dual and monotherapy controls, 4T1 mammary tumor model; details: day 18
Experimental: BALB/c mice were inoculated intramuscularly (i.m.) with 0.5×10^5 4T1 cells (day −7) and treated (n=10 mice/group) with isotype control (400 μg i.v.; day 0, 2, 4)+vehicle control (0.2 mL, p.o., day 0-4), bintrafusp alfa (492 μg i.v.; day 0, 2, 4)+vehicle control, RT (8 Gy, day 0-3)+isotype control+vehicle control, Compound A (100 mg/kg, p.o, days 0-4)+isotype control, bintrafusp alfa+RT, bintrafusp alfa+Compound A, RT+Compound A, or bintrafusp alfa+RT+Compound A. Tumor volumes were measured twice weekly and presented as (A) mean±SEM or (B) individual tumor volumes. P-values were calculated by two-way RM ANOVA with Tukey's post-test. (C) For survival analysis, mice were sacrificed when tumor volumes reached ≈2000 mm^3 and median survival times were calculated. […]
as §1

4T1 cells [4] = assay: Example 4: triple combination with various RT doses versus bintrafusp alfa+RT, 4T1 mammary tumor model; details: RT 8Gy, QDx4
Experimental: Balb/c mice were inoculated with 4T1 cells (0.5×10^6) in the right thigh muscle (day −7). At day 0, when average tumor volumes reached 150 mm^3, mice were treated (n=10 mice/group) with isotype control (400 μg i.v.; Days 0, 2, 4), Bintrafusp alfa (492 μg/mouse i.v.; Days 0, 2, 4)+RT (8Gy, QDx4), or bintrafusp alfa+Compound A (100 mg/kg p.o., QDx4)+RT (8Gy or 6Gy or 4Gy or 2Gy, QDx4). Tumor volumes were measured twice weekly and presented as mean±SEM. P-values were calculated by two-way ANOVA with Sidack's or Tukey's post-test. P-values comparing median survival were calculated with the Log-rank (Mantel-Cox) test.
Treatment was initiated on day 0 when average tumor volume reached ˜150 mm^3. Mice were sacrificed when tumor volumes reached ˜2500 mm^3. […]
Tumor volumes were calculated with the following formula: tumor volume (mm^3)=tumor length×width×height×0.5236.
To compare the percentage survival between different treatment groups, Kaplan-Meier survival curves were generated. Body weight was measured twice weekly and mice were sacrificed when their tumor volume exceeded 2,000 mm^3.
Statistical analyses were performed using GraphPad Prism Software, version 8.0 or 8.0.1. […] A Kaplan-Meier plot was generated to show survival by treatment group and significance was assessed by log-rank (Mantel-Cox) test.

Substance: bintrafusp alfa and RT: dual combination therapy of bintrafusp alfa with radiotherapy (RT)
- median survival (4T1 cells [1]): 26 days
- median survival (4T1 cells [2]): 26 days
- antitumor activity of dual combination therapy relative to the respective monotherapies (4T1 cells [3]): enhanced antitumor activity
- median survival (4T1 cells [4]): 26 days
